PMC9767854, “Discovery and mechanism studies of a novel ATG4B inhibitor Ebselen by drug repurposing and its anti-colorectal cancer effects in mice” (Cell & Bioscience, 2022)

How the values were obtained:
HCT116 cells = assay: Cell counting and colony formation assays; type: cell-based
Procedure: For colony formation, WT HCT116 and ATG4B KO HCT116 cells were seeded in 6-well plates at 800 cells per well and cultured for 9–12 days, respectively. Concurrently, medium containing indicated compounds were replaced every 3 days, before the cells were fixed in 4% paraformaldehyde for 20 min and washed with PBS three times. Then colonies were stained with crystal violet (Beyotime, C0121) for 1 h and excess dyes were washed with PBS. Eventually, colonies more than 1 mm were counted in at least three independent experiments.
WT/ATG4B KO HCT116, WT/ATG4B KO SW620 and WT/ATG4B KO RKO cells were seeded in 96-well plate at 1000–1500 cells per well for cell viability assay, and seed in 6-well plate at 1 × 10^5 cells per well for cell number counting. After 12 h, the indicated drugs were added to the medium and cultured for another 96 h. Total viable cell numbers were counted by a cell counter (BioRAD), and cell viability was determined by cell-count-8 assay kit (CCK-8, Bimake, B34304) according to the manufacturer’s protocol.

Caspase 2 = molecular target: T1, Caspase 2 (Homo sapiens, UniProt P42575); assay: Caspase activity assay kit, CASP2; type: biochemical; settings: 10 μM
T1 construct: Beyotime (assay kit only) C1107
Procedure: (§1) The enzyme activity of Caspase 1, Caspase 2, Caspase 3, Caspase 4, Caspase 6, Caspase 8 and Caspase 9 were determined via the activity assay kits (C1101, C1107, C1115, C1121, C1135, C1151 and C1157) from Beyotime (Shanghai, China). Then the experimental procedures were performed according to the manufacturer’s protocols.

Caspase 3 = molecular target: T2, Caspase 3 (Homo sapiens, UniProt P42574); assay: Caspase activity assay kit, CASP3; type: biochemical; settings: 10 μM
T2 construct: Beyotime (assay kit only) C1115
Procedure: as §1

ATG4B = molecular target: T3, ATG4B (Homo sapiens, UniProt Q9Y4P1); assay: In vitro thermal shift assay, ATG4B WT; type: binding; settings: ATG4B 100 nM, Ebselen 1 μM, compared with DMSO
T3 construct: 6xHis; made in house; host or cells: E. coli BL21(DE3)
T3 sequence (Q9Y4P1 1-393): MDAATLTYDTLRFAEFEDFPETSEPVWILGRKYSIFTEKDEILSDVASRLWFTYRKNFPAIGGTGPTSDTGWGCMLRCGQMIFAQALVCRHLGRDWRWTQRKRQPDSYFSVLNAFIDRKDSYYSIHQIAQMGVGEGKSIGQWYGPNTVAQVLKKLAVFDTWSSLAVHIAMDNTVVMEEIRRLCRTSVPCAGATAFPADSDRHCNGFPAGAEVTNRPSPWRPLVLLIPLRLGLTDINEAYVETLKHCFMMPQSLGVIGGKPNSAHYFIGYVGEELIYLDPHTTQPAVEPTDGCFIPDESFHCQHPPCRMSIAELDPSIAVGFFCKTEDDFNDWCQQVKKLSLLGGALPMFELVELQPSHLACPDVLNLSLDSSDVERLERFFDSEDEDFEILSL
Procedure: For in vitro thermal shift assay, recombinant protein ATG4B or C74S mutant (100 nM) was incubated with Ebselen (1 μM) (DMSO as control) in the PCR tubes. The PCR instrument program was set at 25 °C for 10 min, 37 °C to 70 °C for 30 min and followed by cooling tubes for 5 min at room temperature. Then centrifuged at 12,000 rpm for 10 min at 4 °C, soluble fractions were separated from precipitates to be analyzed by SDS-PAGE and immunoblotting.

xenografted tumors = assay: Autophagy, apoptosis and Ki67 markers in xenografted tumors; type: in vivo, BALB/c-nu/nu mice
Procedure: Fig. 7 Ebselen suppresses colorectal cancer tumor growth. A A brief diagram of the animal experiment for subcutaneous xenografted tumor model. 2 × 10^6 (2e^6) SW620 cells were xenografted into BALB/c-nu/nu mice by subcutaneous injection (s.c.). After 10 days, mice were injected intraperitoneally (i.p.) with indicated doses of Ebselen every two days, and monitoring of tumor volume and body weight changes were performed. B–D Representative tumor images and tumor weight at the end time point were captured from SW620 cell-based xenografts. Mean tumor weight ± SEM (C) and mean tumor volume ± SEM (D) were shown. E The inhibitory effect of ATG4 in xenografted tumors was detected by FRET assay. F, I The protein level of autophagy and apoptosis in xenografted tumors were detected by western blot. Representative results were shown and the statistical results of each group were obtained from seven mice. J, K The immunohistochemistry analysis of Ki67 in xenografted tumors (group vehicle and Ebselen 10 mg/kg). Bar = 20 μm. The positive Ki67 area rate was obtained from the ratio of positive Ki67 area to total cell area by Image J
(§2) Four- to six-weeks-old BALB/C nu/nu female mice purchased from the Experimental Animal Center of Sun Yat-Sen University, were approved by the Animal Ethics Committee at Sun Yat-sen University and kept in specific-pathogen-free environment. Approximately 2 × 10^6 SW620 cells or 1 × 10^7 HCT116 cells were injected subcutaneously into the dorsal flank on the right side of the mice. Different groups were divided randomly when the tumor volume was approximately 60–80 mm^3, before drug administration intraperitoneally (i.p.). Tumor volume was measured by calipers and calculated using the equation: 0.5 × length × width^2. At the end of the experiments, the mice were sacrificed and tumors were dissected and weighed. In particular, we employed Servicebio (Wuhan, China) to carry out H&E staining and immunohistochemistry assay.

HCT116 based xenograft = assay: HCT116 subcutaneous xenograft tumor model; type: in vivo, BALB/c-nu/nu mice; settings: i.p., compared with SW620 xenografts
Procedure: as §2
Supplementary file 13578_2022_944_MOESM1_ESM.docx: Additional file 1: Figure S1. Screening of ATG4B inhibitors based on the approved drugs library by FRET assay. […] (D) Candidate compound number and name correspondence table, and IC50 calculation of nine commercially available compounds for ATG4B by FRET assay. Figure S2. […] Figure S3. […] Figure S5. […] Figure S6.

WT and ATG4B KO HCT116 = assay: Apoptosis detection by cleaved PARP western blot; type: cell-based; settings: low or high concentrations of Ebselen; STS 2 μM; 6 h

T2 sequence (P42574 29-175 limits assumed, species assumed): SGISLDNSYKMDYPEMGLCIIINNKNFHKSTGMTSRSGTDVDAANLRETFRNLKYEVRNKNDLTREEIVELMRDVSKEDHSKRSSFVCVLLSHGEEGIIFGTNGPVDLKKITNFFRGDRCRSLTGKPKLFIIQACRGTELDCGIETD
T2 sequence (P42574 176-277 limits assumed, species assumed): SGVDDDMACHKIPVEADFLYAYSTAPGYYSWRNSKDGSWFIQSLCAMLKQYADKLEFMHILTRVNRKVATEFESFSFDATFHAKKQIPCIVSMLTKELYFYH
T1 sequence (P42575 170-325 limits assumed, species assumed): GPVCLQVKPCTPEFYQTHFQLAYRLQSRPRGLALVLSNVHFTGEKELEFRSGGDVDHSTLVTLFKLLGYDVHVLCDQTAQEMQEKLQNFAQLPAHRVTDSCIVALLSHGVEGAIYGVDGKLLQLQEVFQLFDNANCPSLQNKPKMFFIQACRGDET
T1 sequence (P42575 348-452 limits assumed, species assumed): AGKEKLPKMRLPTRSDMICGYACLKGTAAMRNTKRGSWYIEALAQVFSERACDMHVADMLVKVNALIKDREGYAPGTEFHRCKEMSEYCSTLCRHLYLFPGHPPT

O=c1c2ccccc2[se]n1-c1ccccc1 [Ebselen]
cell proliferation and colony formation (HCT116 cells): significantly inhibit
effect on CASP2 activity (Caspase 2): certain inhibition
effect on CASP3 activity (Caspase 3): certain inhibition
thermal stability of wild type ATG4B (ATG4B): strikingly improved
Ki67 positivity in tumors (xenografted tumors; Ebselen 10 mg/kg, immunohistochemistry): significant reduction of Ki67 positivity
autophagy flux in tumors (LC3-II, p62) (xenografted tumors; compared with the vehicle group): significantly inhibited
apoptosis of tumors (xenografted tumors; western blot): inhibited the apoptosis of tumors in a dose-dependent manner
tumor suppression (HCT116 based xenograft): slightly weaker potential for tumor suppression
apoptosis (cleaved PARP) (WT and ATG4B KO HCT116): did not show any increase in apoptosis
